Measurements: US20200093890A1, “COMPOSITIONS AND METHODS FOR TREATING ALZHEIMER'S DISEASE” (CASE WESTERN RESERVE UNIVERSITY, priority 2017, published 2020)

System: APP processing
Test: Immunoblot of APP processing (FIG. 12)
From the text: FIG. 12 illustrates an immunoblot showing the effects ISP in combination with a γ-secretase inhibitor on APP processing compared to a γ-secretase inhibitor administered alone or a BACE1 inhibitor administered in combination with a γ-secretase inhibitor. […]

NH2GRKKRRQRRRCDMAEHTMERLKANDSLKLSQEYESI-NH2 [ISP]
effect on APP processing (immunoblot) (ISP in combination with a γ-secretase inhibitor, compared to a γ-secretase inhibitor alone or a BACE1 inhibitor in combination with a γ-secretase inhibitor): substantially inhibited APP processing
suppression of APP amyloidogenic processing by BACE1 (blocking PTPσ with wedge domain peptide mimetic, compared with PTPσ depletion): suppress APP amyloidogenic processing by BACE1, to a similar degree as PTPσ depletion
